Data on eleven compounds can be found in patent US7112607B2, “Allosteric adenosine receptor modulators” (King Pharmaceuticals Research & Development, Inc., priority 1997, dated 2006).

The test concerns the target T1, human recombinant A1 adenosine receptors (Homo sapiens, UniProt P30542).
T1 construct: expressed in transfected cells; host or cells: Chinese hamster ovary (CHO) cells, CHO:huA1, G-418 selected
T1 sequence (P30542 1-326): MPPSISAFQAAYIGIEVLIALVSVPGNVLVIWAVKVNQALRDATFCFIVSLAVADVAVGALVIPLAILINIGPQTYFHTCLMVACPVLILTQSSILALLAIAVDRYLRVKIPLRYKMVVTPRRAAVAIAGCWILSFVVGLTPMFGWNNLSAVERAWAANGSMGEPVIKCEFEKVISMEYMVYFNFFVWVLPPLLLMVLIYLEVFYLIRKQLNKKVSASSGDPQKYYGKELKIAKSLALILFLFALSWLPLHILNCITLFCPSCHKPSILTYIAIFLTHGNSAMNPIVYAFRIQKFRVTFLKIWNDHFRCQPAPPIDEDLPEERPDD
The test can be described thus: Allosteric enhancement: reduction of cAMP content of CHO:huA1 cells (radioimmunoassay). The format is cell-based. Conditions: forskolin 1 μM, rolipram 20 μM, CPA 0.01 nM, adenosine deaminase, 6 min at 36° C.; for inhibition at 0.01 µM / inhibition at 0.1 µM / inhibition at 1 µM / inhibition at 10 µM: 0.1 h, read-out: Change in cAMP Content from Control (mean + SEM). On the procedure: Chinese hamster ovary cells expressing human recombinant A1 adenosine receptors (CHO:huA1 cells) at a density of approximately 8000 fmol/mg protein were prepared as previously described (Kollias-Baker et al., (1997), J. Pharmacol. Exp. Ther. 281: 761–768) and aliquots of the cells at low passage numbers were frozen and stored in liquid nitrogen. When compounds were tested, an aliquot of CHO:huA1 cells were rapidly thawed after removal from liquid nitrogen, then grown in Ham's F12 culture medium with 10% fetal bovine serum and 0.5 mg/mL of antibiotic G-418 (Shryock, Ozeck, and Belardinelli (1998), Mol. Pharmacol 53: 886–893). Cells were passaged thrice weekly. Aliquots of cells were placed into 12-well plates with culture medium, serum, and antibiotic for 48 hours, by which time the cells had grown to a confluent monolayer.
Allosteric enhancement was measured as the action of a test compound at different concentrations (0.01, 0.1, 1 and 10 μM) to reduce the cAMP content of CHO:huA1 cells. To initiate an experiment, growth medium was removed from the 12-well plates and cells were washed once with warm Hanks' buffered saline. The wash solution was then removed and replaced with fresh Hanks' solution containing forskolin (1 μM), rolipram (20 μM), N^6-cyclopentyladenosine (CPA, 0.01 nM), adenosine deaminase (2 U/mL), and the test compound. Forskolin was used to stimulate the activity of adenylyl cyclase, rolipram to inhibit cAMP phosphodiesterase, adenosine deaminase to degrade endogenous adenosine, and CPA to cause a small increase of the number of activated adenosine receptors. After 6 min of incubation at 36° C. in the presence of test compound, the incubation solution was removed and hydrochloric acid (final concentration 50 mM) was added to terminate drug action.
The content of cAMP in acidified extracts of cells was determined by radioimmunoassay as previously described (Kollias-Baker et al., (1997), J. Pharmacol. Exp. Ther. 281: 761–768). Because the magnitude of the effects of allosteric enhancers on CHO:huA1 cells changed subtly with passage number and differed slightly among different aliquots of cells, the actions of the test compounds and the action of a reference compound (PD 81,723) were assessed in each experiment. The effect of each test compound on cAMP content is presented in Table 1 as a percentage of the value of cAMP content in the absence of drug (control, 100%). Each value is a mean±standard error of 6 determinations in each of the number of experiments indicated in the “n” column of the table.

With `Nc1sc2c(c1C(=O)c1ccccc1)CCSC2` [Example 1, (2-Amino-4,7-dihydro-5H-thieno[2,3-c]thiopyran-3-yl)-phenyl-methanone], where the note is “0.01 μM test compound”, the inhibition at 0.01 µM was -9 ± 4%. Further, the inhibition at 0.1 µM (0.1 μM test compound) was determined as 6 ± 3%. Besides, the inhibition at 1 µM (1 μM test compound) is 15 ± 2%. Where the note is “10 μM test compound”, the inhibition at 10 µM came to 35 ± 2%.

Turning to `Nc1sc2c(c1C(=O)c1ccc(Cl)cc1)CCSC2` [Example 2, (2-Amino-4,7-dihydro-5H-thieno[2,3-c]thiopyran-3-yl)-(4-chlorophenyl)-methanone], under “0.01 μM test compound”, the inhibition at 0.01 µM was -15 ± 3%. Moreover, the inhibition at 0.1 µM (0.1 μM test compound) was determined as 10 ± 4%. Besides, the inhibition at 1 µM (1 μM test compound) was -16 ± 5%. Also, under “10 μM test compound”, the inhibition at 10 µM came to 0.3 ± 5%.

With `Nc1sc2c(c1C(=O)c1ccc(Cl)cc1)CCS2` [Example 3, (2-Amino-4,5-dihydrothieno[2,3-b]thiophen-3-yl)-(4-chlorophenyl)-methanone], for the setting “0.01 μM test compound”, the inhibition at 0.01 µM worked out at 1 ± 4%. Further, the inhibition at 0.1 µM (0.1 μM test compound) was -11 ± 4%. Where the note is “1 μM test compound”, the inhibition at 1 µM is -1 ± 3%. In addition, the inhibition at 10 µM (10 μM test compound) turned out to be 35 ± 4%.

Regarding `Nc1sc2c(c1C(=O)c1ccco1)CCCC2` [Example 4, (2-Amino-4,5,6,7-tetrahydrobenzo[b]thiophen-3-yl)-furan-2-yl-methanone], where the note is “0.01 μM test compound”, the inhibition at 0.01 µM turned out to be 10 ± 2%. Besides, the inhibition at 0.1 µM (0.1 μM test compound) is -2 ± 6%. For the same compound, under “1 μM test compound”, the inhibition at 1 µM came out at 3 ± 6%. In addition, the inhibition at 10 µM (10 μM test compound) turned out to be 10 ± 7%.

Turning to `Nc1sc2c(c1C(=O)c1cccs1)CCCC2` [Example 5], the “Change in cAMP Content from Control (mean + SEM)” value is, setting by setting: (0.01 μM test compound) −11 ± 3%; (0.1 μM test compound) −11 ± 5%; (1 μM test compound) −16 ± 3%; (10 μM test compound) −40 ± 2%.

Take `Nc1sc2c(c1C(=O)c1cccc3ccccc13)CCCC2` [Example 6, (2-Amino-4,5,6,7-tetrahydrobenzo[b]thiophen-3-yl)-naphthalen-1-yl-methanone]: the inhibition at 0.01 µM (0.01 μM test compound) was 11 ± 4%. Moreover, the inhibition at 0.1 µM (0.1 μM test compound) was determined as 15 ± 4%. Also, the inhibition at 1 µM (1 μM test compound) was 22 ± 3%. Further, the inhibition at 10 µM (10 μM test compound) amounted to 52 ± 3%.

For the compound `Nc1sc2c(c1C(=O)c1cccc3ccccc13)CCC2` [Example 7, (2-Amino-5,6-dihydro-4H-cyclopenta[b]thiophen-3-yl)-naphthalen-1-yl-methanone], the inhibition at 0.01 µM (0.01 μM test compound) was found to be 0.6 ± 3%. Moreover, under “0.1 μM test compound”, the inhibition at 0.1 µM stood at 6 ± 1%. The inhibition at 1 µM (1 μM test compound) is 29 ± 4%. Moreover, the inhibition at 10 µM (10 μM test compound) was found to be 60 ± 1%.

With `Cc1sc(N)c(C(=O)c2cccc3ccccc23)c1C` [Example 8, (2-Amino-4,5-dimethylthiophen-3-yl)-naphthalen-1-yl-methanone], the inhibition at 0.01 µM (0.01 μM test compound) came to 0.6 ± 2%. The inhibition at 0.1 µM (0.1 μM test compound) came to 3 ± 3%. The inhibition at 1 µM (1 μM test compound) is -6 ± 5%. The inhibition at 10 µM (10 μM test compound) amounted to 45 ± 2%.

For `Nc1sc2c(c1C(=O)c1cccc3ccccc13)CCN(Cc1ccccc1)C2` [Example 9, (2-Amino-6-benzyl-4,5,6,7-tetrahydrothieno[2,3-c]pyridin-3-yl)-naphthalen-1-yl-methanone], under “0.01 μM test compound”, the inhibition at 0.01 µM is 21 ± 3%. Besides, the inhibition at 0.1 µM (0.1 μM test compound) is 7 ± 4%. The inhibition at 1 µM (1 μM test compound) is 25 ± 4%. Besides, the inhibition at 10 µM (10 μM test compound) was -19 ± 2%.

In the case of `CC(=O)Nc1sc2c(c1C(=O)c1ccco1)CCCC2` [Example 10, N-[3-(Furan-2-carbonyl)-4,5,6,7-tetrahydrobenzo[b]thiophen-2-yl]-acetamide], the inhibition at 0.01 µM (0.01 μM test compound) was found to be 8 ± 5%. The inhibition at 0.1 µM (0.1 μM test compound) amounted to 14 ± 4%. In addition, where the note is “1 μM test compound”, the inhibition at 1 µM stood at 25 ± 5%. For the same compound, the inhibition at 10 µM (10 μM test compound) is -8 ± 5%.

Take `Nc1sc2c(c1C(=O)c1ccco1)CCC2` [Example 11, (2-Amino-5,6-dihydro-4H-cyclopenta[b]thiophen-3-yl)-furan-2-yl-methanone]: under “0.01 μM test compound”, the inhibition at 0.01 µM was -3 ± 4%. Moreover, the inhibition at 0.1 µM (0.1 μM test compound) turned out to be 14 ± 4%. For the same compound, the inhibition at 1 µM (1 μM test compound) was found to be 0.8 ± 3%. Besides, the inhibition at 10 µM (10 μM test compound) worked out at 23 ± 2%.
